Test results from ChEMBL document CHEMBL2150848, “Artificial ladder-shaped polyethers that inhibit maitotoxin-induced Ca2+ influx in rat glioma C6 cells” (Bioorg Med Chem Lett, 2012).
Activity calls are given as the source filed them. The rule behind the calls is not given here.

Tests used:
C6 [1] = experiment: Inhibition of MTX-induced calcium influx in rat glioma C6 cells using 45CaCl2 incubated for 12 mins prior to MTX-challenge measured after 12 mins by scintillation counting; assay type: functional, cell-based
C6 [2] = experiment: Inhibition of MTX-induced calcium influx in rat glioma C6 cells using 45CaCl2 at 10 uM incubated for 12 mins prior to MTX-challenge measured after 12 mins by scintillation counting relative to untreated-control; assay type: functional
C6 [3] = experiment: Inhibition of MTX-induced 45Ca2+ influx in rat glioma C6 cells; assay type: functional, cell-based
Mus musculus = experiment: Toxicity in ip dosed mouse; assay type: organism-based; details: in vivo

Row | Compound | EC50 (C6 [1]) [µM] | inhibition (C6 [1]) | EC50 (C6 [3]) [µM] | further results
1 | C[C@@]12CC[C@@H]3O[C@@H]4C[C@@H]5O[C@@H]6C[C@@H]7O[C@]8(C)CC[C@@H]9O[C@H](CO)[C@@H](O)C[C@H]9O[C@H]8C[C@H]7O[C@H]6CC[C@@]5(C)O[C@H]4C[C@H]3O[C@H]1C[C@H]1O[C@@H](CCOCc3ccccc3)[C@H](OCc3ccccc3)C[C@@H]1O2 | 15 | – | – | –
2 | C[C@@]12CC[C@@H]3O[C@@H]4C[C@@H]5O[C@@H]6C[C@H](O)[C@@H](CO)O[C@H]6CC[C@@]5(C)O[C@H]4C[C@H]3O[C@H]1C[C@H]1O[C@@H](CCOCc3ccccc3)[C@H](OCc3ccccc3)C[C@@H]1O2 | 2 | Dose-dependent effect | – | inhibition at 10 µM (C6 [2]): 80%
3 | C=C(C=O)C[C@@H]1C[C@H](O)[C@@H]2O[C@@H]3C[C@]4(C)O[C@@H]5/C=C\C[C@@H]6O[C@H]7[C@H](C/C=C\C[C@H]6O[C@H]5CCC[C@H]4O[C@H]3C[C@H]2O1)O[C@@H]1C[C@@H]2O[C@@H]3CC(=O)O[C@H]3C[C@@H](C)C[C@@]2(C)O[C@H]1C[C@@H]7C [BREVETOXIN A] | – | – | 16 | –
4 | C=C(C=O)C[C@@H]1C[C@H](O)[C@]2(C)O[C@@H]3C[C@@H]4O[C@@H]5C[C@]6(C)O[C@]7(C)CC[C@@H]8O[C@@H]9C[C@]%10(C)O[C@@H]%11C(C)=CC(=O)O[C@H]%11C[C@H]%10O[C@H]9C[C@@H](C)[C@H]8O[C@H]7C[C@H]6O[C@@]5(C)C/C=C\[C@H]4O[C@H]3C[C@H]2O1 [BREVETOXIN B] | – | Active | 13 | –
5 | C=CC[C@H](C)[C@H](C)C[C@@H](O)[C@H](O)[C@@H]1CC[C@@]2(C)O[C@@]3(C)C[C@@]4(C)O[C@H]5/C=C\C[C@H]6O[C@H]7C[C@H]8O[C@H]9C[C@@]%10(C)O[C@@](C)([C@@H]%11CC[C@H]%12O[C@@]%13(C)C[C@H]%14O[C@@]%15(C)C[C@H]%16O[C@@]%17(C)C[C@@H](O)[C@H]([C@@H]%18O[C@H]%19[C@H](O)[C@@H](O)[C@H](C[C@H](O)C[C@@H](O)[C@@H]%20O[C@H]%21[C@H](O)[C@@H](O)[C@H]([C@@H]%22O[C@@H]%23[C@H](O)[C@H]%24O[C@H]%25C[C@H]%26O[C@@H](C[C@H](O)[C@@H](O)[C@H]%27O[C@H]%28[C@H](O)[C@H]%29O[C@H]%30C[C@H]%31O[C@H]%32[C@@H](O)[C@@H](O)[C@H]([C@H](C)[C@H](O)[C@H](C)CC[C@H](OS(=O)(=O)[O-])[C@H](O)[C@H](C)C[C@@H](O)C(=C)/C(C)=C/CO)O[C@@H]%32[C@H](O)C[C@]%31(C)O[C@@H]%30C[C@]%29(C)O[C@@H]%28C[C@H]%27O)[C@H](OS(=O)(=O)[O-])[C@H](O)[C@@H]%26O[C@@H]%25C[C@@H]%24O[C@H]%23[C@H](O)[C@H]%22O)O[C@H]%21C[C@H]%20O)O[C@H]%19C[C@H]%18O)O[C@@H]%17[C@H](O)[C@]%16(C)O[C@@H]%15CC[C@]%14(C)O[C@@H]%13C[C@@H]%12O%11)[C@H](O)C[C@@H]%10O[C@]9(C)CC[C@]8(C)O[C@]7(C)C[C@@H]6O[C@@H]5C[C@@H]4O[C@@H]3C[C@@H]2O1.[Na+].[Na+] [MAITOTOXIN] | – | – | – | LD50 (Mus musculus): 0.05 µg/kg
